Results on four substances are retold here after patent US20220339248A1, “METHODS FOR TREATING NEOINTIMAL HYPERLASIA USING F11R/JAM-A INHIBITORS” (THE RESEARCH FOUNDATION FOR THE STATE UNIVERSITY OF NEW YORK, priority 2019, published 2022).

In one experiment the target is T1, F11R (Homo sapiens, UniProt Q9Y624).
T1 sequence (Q9Y624 28-299): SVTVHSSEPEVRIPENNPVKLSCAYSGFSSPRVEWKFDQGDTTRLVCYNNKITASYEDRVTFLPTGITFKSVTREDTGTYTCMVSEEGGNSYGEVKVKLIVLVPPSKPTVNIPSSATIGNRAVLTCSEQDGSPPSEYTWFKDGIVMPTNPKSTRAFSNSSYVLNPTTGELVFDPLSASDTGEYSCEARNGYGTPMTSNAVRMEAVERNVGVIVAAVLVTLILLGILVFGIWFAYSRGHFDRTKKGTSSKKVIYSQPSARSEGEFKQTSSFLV
The conditions noted are these: statement in words; activity described in Babinska et al. and U.S. Pat. Nos. 9,556,235 and 8,557,957; cited from earlier work.

The subject of the next experiment is uremic C57BL/6 mice. Put plainly: Carotid artery partial ligation (focal LCA stenosis) model of neointimal hyperplasia in 5/6 nephrectomized uremic mice. In kind it is in vivo, mouse. The conditions noted are these: for mean Intima Index (intima area/intima+media area) from 1 LCA location with biggest focal stenosis: FIG. 7, control 0.47±0.15, U-Mann Whitney p=0.039. On the procedure: Carotid artery ligation was performed on 14 uremic C57BL/6 mice that underwent 5/6 nephrectomy. One week after nephrectomy, partial ligation of the left carotid artery (LCA) was performed on each mouse. Focal LCA stenosis was created by placing 9-0 nylon suture at 1 mm proximal to the carotid bifurcation (mid-focal stenosis) around the artery using a 35-gauge blunt needle (World precision Instruments, Inc., Sarasota, Fla.). Then the needle mandrel was gently removed to restore blood flow.
Mice were fed a regular mouse diet and divided into 2 groups of 7 mice each; the experimental group received Peptide 4D while the Control group received saline injections by intraperitoneal route for 21 days, as this was the time shown in earlier studies to correlate with development of neointimal hyperplasia following partial ligation of the carotid artery.
The mice were then euthanized on day 21 and both LCA and right carotid artery (RCA) were excised for analysis. Specimens were embedded in paraffin. Serial sections (6 μm thick) were collected at 200-μm intervals of the LCA from mid-focal stenosis as well as from the RCA serving as lesion control. Data were analyzed qualitatively and quantitatively using Image J software. The two groups were compared for differences in mean Intima Area and Intima Index, defined as the ratio of intima area divided by intima plus media area.

Entries after “also recorded” stand apart in the source; their conditions may differ. Non-standard residues stand in square brackets, D forms with d.

With “KSVTREDTGTYTC (Laboratory synthesized sequence) [SEQ ID NO: 2]”, the “inhibition of the biological activities of F11R” value with F11R was “inhibitor of the biological activities of F11R”.
On to “NH2-(dK)-SVT-(dR)-EDTGTYTC-CONH2 (H-[dK]SVT[dR]EDTGTYTC-NH2; SMILES CC(C)[C@H](NC(=O)[C@H](CO)NC(=O)[C@H](N)CCCCN)C(=O)N[C@H](C(=O)N[C@H](CCCNC(=N)N)C(=O)N[C@@H](CCC(=O)O)C(=O)N[C@@H](CC(=O)O)C(=O)N[C@H](C(=O)NCC(=O)N[C@H](C(=O)N[C@@H](Cc1ccc(O)cc1)C(=O)N[C@H](C(=O)N[C@@H](CS)C(N)=O)[C@@H](C)O)[C@@H](C)O)[C@@H](C)O)[C@@H](C)O) [Peptide 4D]”, for which the “mean Intima Index (intima area/intima+media area) from 10 LCA locations” value with uremic C57BL/6 mice (FIG. 6, 21 days, n=7, control 0.27±0.13, U-Mann Whitney p=0.0079) was “significantly less”. For the same substance, the “mean Intima Index (intima area/intima+media area) from 1 LCA location with biggest focal stenosis” value in the experiment with uremic C57BL/6 mice (21 days, n=7) is “significantly less”; in the experiment with uremic C57BL/6 mice (21 days, n=7, listed as peptide 4D), 0.31±0.14. Moreover, the “intima area relative to distance from the ligation point (mid focal stenosis morphometry)” value with uremic C57BL/6 mice (FIGS. 3A-3B, 4, LCA, 21 days, versus saline control, n=7) was “significantly smaller; also recorded: significantly decreased intima area”. For the same substance, the “effect on neointimal hyperplasia” value in the experiment with uremic C57BL/6 mice (carotid ligation model, 21 days, versus saline control) is given as “significantly inhibits neointimal hyperplasia”. Further, the “number of mice whose LCA had severe neointimal hyperplasia” value with uremic C57BL/6 mice (of 7 experimental mice, all control LCA severe, two with complete luminal occlusion) is on record as “one”.
With “SSEPEVRIPENNPV (Laboratory synthesized sequence) [SEQ ID NO: 16]”, the “inhibition of the biological activities of F11R” value in the experiment with F11R was “inhibitor of the biological activities of F11R”.
With “SVTVHSSEPEVRIPENNPVKLSC (SVTVHSSEPEVXIPENNPVKLSC; Laboratory synthesized sequence; (12)..(12) Xaa can be any naturally occurring amino acid) [SEQ ID NO: 11, 23-amino acid N-terminal peptide of F11R/JAM-A]”, in the experiment with F11R, the “inhibition of the biological activities of F11R” value is “inhibitor of the biological activities of F11R”.
